Where a name gives a salt, the structure may show the parent alone.
Tests used:
Assay type in all cases: physicochemical
[1] = Solid form stability on wet granulation, equilibration, humidity exposure, compression, grinding (XRPD); conditions: for form change on wet granulation: wet granulation (with water)
Description: (i) X-Ray Powder Diffraction (XRPD) The X-ray powder diffraction pattern was determined using a Scintag XDS 2000 diffractometer instrument. The X-ray diffraction pattern was recorded between 2° and 35° (2θ) with CuK radiation (45 kV, 40 mA). The measurements were performed at about 45 kV and 40 mA under the following conditions: • Scan rate: 0.5° (20)/min • Chopper increment: 0.02° • Slits (from left to right): 2, 3, 0.3, 0.2 mm

[2] = Water uptake / hygroscopicity at relative humidity (sorption-desorption)
[3] = Solvent loss as a function of temperature as measured by TG/DTA
Description: (ii) Thermogravimetric/Differential Thermal Analysis (TG/DTA)
Differential scanning calorimetry was conducted for each crystalline form using a Seiko TG/DTA Instrument. For each analysis, the DSC cell/sample chamber was purged with 100 mL/min of ultra-high purity nitrogengas. The instrument was calibrated with high purity indium. The heating rate was 10° C. per minute in the temperature range between 25 and 300° C. The heat flow, which was normalized by sample weight, was plotted versus the measured sample temperature. The data were reported in units of watts/gram (“W/g”). The plot was made with the endothermic peaks pointing down. The endothermic melt peak (melting point) was evaluated for extrapolated onset temperature.

Flowability of the solid = assay: Flowability of the solid

CCOC(=O)[C@H](C)CC(Cc1ccc(-c2ccccc2)cc1)NC(=O)CCC(=O)O (stereo partly drawn) [amorphous AHU377 calcium salt, calcium salt of N-(3-carboxyl-1-oxopropyl)-(4S)-(p-phenylphenylmethyl)-4-amino-(2R)-methyl butanoic acid ethyl ester]
form change on exposure to elevated humidity ([1]; >75% RH): turns into a crystalline hydrate | form change after compression ([1]; compression for 5 min at 10 t, XRPD): No change of the amorphous form | form change after grinding ([1]; grinding, XRPD): No change of the amorphous form | form change on wet granulation [1]: rapidly leads to hydrate formation | water uptake ([2]; at 80% RH): 15.2%

CCOC(=O)[C@H](C)CC(Cc1ccc(-c2ccccc2)cc1)NC(=O)CCC(=O)O (stereo partly drawn) [Modification A, calcium salt of N-(3-carboxyl-1-oxopropyl)-(4S)-(p-phenylphenylmethyl)-4-amino-(2R)-methyl butanoic acid ethyl ester]
hygroscopicity (in words) [2]: hygroscopic | water uptake ([2]; at 95% RH): 13.8%

CCOC(=O)[C@H](C)CC(Cc1ccc(-c2ccccc2)cc1)NC(=O)CCC(=O)O (stereo partly drawn) [Modification HB, calcium salt of N-(3-carboxyl-1-oxopropyl)-(4S)-(p-phenylphenylmethyl)-4-amino-(2R)-methyl butanoic acid ethyl ester]
water levels as obtained [3]: 1.4-4.1% | Loss on drying (LOD) ([3]; TG/DTA, 10° C./min, nitrogen, listed as HB): 3.4% | temperature required for complete dehydration ([3]; heating): above 97 °C | flowability (Flowability of the solid): good flowability properties | behaviour at humidity (in words) ([2]; 25° C., relative humidity from 0% to 80%): remains dry | water uptake ([2]; at 95% RH): 2.0% | form retention during take-up and release of water ([2]; sorption-desorption experiments): retained

CCOC(=O)[C@H](C)CC(Cc1ccc(-c2ccccc2)cc1)NC(=O)CCC(=O)O (stereo partly drawn) [Modification B, calcium salt of N-(3-carboxyl-1-oxopropyl)-(4S)-(p-phenylphenylmethyl)-4-amino-(2R)-methyl butanoic acid ethyl ester]
thermal stability [3]: thermally stable up to its melting point | form change on equilibration in solvent ([1]; equilibration in water or ethanol/water 1:1): Hydrate formation was observed | form change on wet granulation [1]: Hydrate formation was observed | hygroscopicity (in words) [2]: only slightly hygroscopic | water uptake, maximum reached ([2]; can reach up to): up to 11% | hygroscopicity (water uptake) under typical humidity levels ([2]; up to 75% RH): < 2%
